Measurements: PMC8151276, “An Integrated Approach toward NanoBRET Tracers for Analysis of GPCR Ligand Engagement” (Molecules, 2021)

What was measured:
Type in all cases: binding
[1] = target: T1, OPRL1 (Homo sapiens, UniProt P41146); experiment: NanoBRET screen HiBiT-OPRL1 in HEK293
T1 construct: purchased Promega (in-house HiBiT-GPCR construct library, NanoBRET)
Experimental: (§1) Each tracer candidate was screened across the entire library of HiBiT-GPCR constructs using NanoBRET as the detection modality. As depicted in Figure 4A, the specificity of interactions was evaluated through decrease in BRET due to competitive displacement of a bound tracer by excess parental compound. Each tracer was analyzed for binding to each HiBiT-GPCR fusion in the absence and in the presence of competing parental compound. Briefly, HEK293 cells were transfected with HiBiT-GPCR constructs diluted into promoterless DNA to reduce expression and maximize translocation to the cell surface. Each tracer candidate was then screened at concentrations of 1 μM and 0.1 μM across cells expressing these fusions. Cells were treated for 1.5 h with tracer either alone or in the presence of 20 μM competing parental compound (i.e., control). BRET was measured upon addition of purified LgBiT and subsequent complementation with HiBiT genetically fused to a GPCR. The specificity of interactions was assessed through a decrease in BRET signal due to competitive displacement of the bound tracer. To further gauge the robustness of these interactions, the fold response over the control (i.e., BRETtracer/BRETcontrol) was calculated. We chose a 1.5-fold response, which translates to ≥7-fold signal over noise as the minimal threshold required to score an interaction as positive. […]. Below we highlight the screening results obtained for our exemplary fluorescent tracers based on Clozapine, Amitriptyline and AZD1283.
(§2) HiBiT-GPCR DNA constructs were diluted in 10 mM Tris pH 8 to a final concentration of 0.01 μg/μL, arrayed in 96-well plates and stored at −20 °C. For transfection, HEK293 cells were suspended in Opti-MEM (without phenol red) supplemented with 2% fetal bovine serum (Seradigm) and 100 units/mL penicillin–streptomycin (Gibco) at a final concentration of 220,000 cells/mL and dispensed into white 96-well plates at 90 μL/well. Subsequent transfections and screens were carried using an Agilent Bravo Automated Liquid Handling Platform. First, the 96-well HiBiT DNA arrays were diluted 25-fold in Opti-MEM (without serum or phenol red) to a final concentration of 0.0004 μg/μL and 20 μL of the diluted DNAs were transferred into new 96-well plates. Next, promoterless carrier DNA (1 μg/μL) was diluted 25-fold (0.04 μg/μL) and then dispensed into the diluted arrays at 20 μL/well. Following brief mixing, Viafect transfection reagent (Promega) diluted 16-fold into Opti-MEM was dispensed into the plates at 40 μL/well. After mixing by pipetting, plates were incubated for 10 min on the pipetting station deck. The DNA-transfection reagent complexes were then added to plates containing cells. To facilitate the screen, 10 μL of DNA-transfection reagent complexes were added in duplicates to the top 4 and bottom 4 rows, resulting in two identical 48-well arrays per plate. Plates with transfected cells were incubated for 18–20 h at 37 °C/5% CO2. A screen of each tracer across the entire library using two different concentrations requires duplicate plates of transfected cells. Depending on the number of tracers being screened, transfections can be scaled up using the same ratios. The next day, for each tracer, four 20× screening solutions in tracer dilution buffer (Promega) were prepared: two duplicates at final concentration of 20 μM and two duplicates at a final concentration of 2 μM. A competing unmodified compound was added to one of each duplicate at a final concentration of 400 μM. The four resulting solutions were diluted 4-fold in Opti-MEM without serum or phenol red to generate 5× solutions (5 µM and 0.5 µM tracer +/− 100 μM competing compound). To screen the library, a BioTek MultiFlo FX liquid dispenser was used to dispense 22.5 µL of tracer solution to the top 4 rows and 22.5 µL tracer + competing compound solution to the 4 bottom rows. Plates were briefly mixed on an orbital shaker and incubated for 1.5 h at room temperature. […]

[2] = target: T2, CCR4 (Homo sapiens, UniProt P51679); experiment: NanoBRET screen HiBiT-CCR4 in HEK293
T2 construct: purchased Promega (in-house HiBiT-GPCR construct library, NanoBRET)
T2 sequence (P51679 1-360): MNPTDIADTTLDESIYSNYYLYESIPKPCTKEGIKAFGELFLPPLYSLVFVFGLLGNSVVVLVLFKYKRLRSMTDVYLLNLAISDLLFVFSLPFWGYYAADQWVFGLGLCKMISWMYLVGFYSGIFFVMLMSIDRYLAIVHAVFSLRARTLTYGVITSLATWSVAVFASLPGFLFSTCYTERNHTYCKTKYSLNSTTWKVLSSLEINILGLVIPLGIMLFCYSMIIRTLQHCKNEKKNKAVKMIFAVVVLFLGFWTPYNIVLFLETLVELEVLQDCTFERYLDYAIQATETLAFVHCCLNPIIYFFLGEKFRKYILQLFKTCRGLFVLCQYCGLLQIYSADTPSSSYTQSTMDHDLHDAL
Experimental: as §1, §2

[3] = target: T3, AGTR1 (Homo sapiens, UniProt P30556); experiment: NanoBRET screen HiBiT-AGTR1 in HEK293
T3 construct: purchased Promega (in-house HiBiT-GPCR construct library, NanoBRET)
T3 sequence (P30556 1-359): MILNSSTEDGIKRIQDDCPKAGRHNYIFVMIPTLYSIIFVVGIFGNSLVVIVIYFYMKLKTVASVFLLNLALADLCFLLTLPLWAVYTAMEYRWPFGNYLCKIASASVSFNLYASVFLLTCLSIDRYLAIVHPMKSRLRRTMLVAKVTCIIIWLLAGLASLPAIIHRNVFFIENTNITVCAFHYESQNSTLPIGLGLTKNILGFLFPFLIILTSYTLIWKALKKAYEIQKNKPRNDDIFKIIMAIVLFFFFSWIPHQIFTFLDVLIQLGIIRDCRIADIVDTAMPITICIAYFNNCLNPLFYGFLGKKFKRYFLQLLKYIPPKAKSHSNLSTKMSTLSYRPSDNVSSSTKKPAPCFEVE
Experimental: as §1, §2

[4] = target: T4, MCHR1 (Homo sapiens, UniProt Q99705); experiment: NanoBRET screen HiBiT-MCHR1 in HEK293
T4 construct: purchased Promega (in-house HiBiT-GPCR construct library, NanoBRET)
T4 sequence (Q99705 whole entry): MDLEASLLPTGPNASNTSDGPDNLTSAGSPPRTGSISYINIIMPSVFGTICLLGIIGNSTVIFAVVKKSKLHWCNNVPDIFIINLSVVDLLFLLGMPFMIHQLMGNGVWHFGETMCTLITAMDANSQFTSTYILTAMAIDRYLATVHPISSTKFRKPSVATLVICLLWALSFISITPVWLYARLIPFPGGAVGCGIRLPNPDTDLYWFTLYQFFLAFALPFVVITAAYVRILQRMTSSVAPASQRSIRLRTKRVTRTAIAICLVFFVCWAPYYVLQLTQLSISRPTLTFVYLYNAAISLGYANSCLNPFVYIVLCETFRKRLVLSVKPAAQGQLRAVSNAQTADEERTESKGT
Experimental: as §1, §2

[5] = target: T5, FZD8 (Homo sapiens, UniProt Q9H461); experiment: NanoBRET screen HiBiT-FZD8 in HEK293
T5 construct: purchased Promega (in-house HiBiT-GPCR construct library, NanoBRET)
T5 sequence (Q9H461 28-694): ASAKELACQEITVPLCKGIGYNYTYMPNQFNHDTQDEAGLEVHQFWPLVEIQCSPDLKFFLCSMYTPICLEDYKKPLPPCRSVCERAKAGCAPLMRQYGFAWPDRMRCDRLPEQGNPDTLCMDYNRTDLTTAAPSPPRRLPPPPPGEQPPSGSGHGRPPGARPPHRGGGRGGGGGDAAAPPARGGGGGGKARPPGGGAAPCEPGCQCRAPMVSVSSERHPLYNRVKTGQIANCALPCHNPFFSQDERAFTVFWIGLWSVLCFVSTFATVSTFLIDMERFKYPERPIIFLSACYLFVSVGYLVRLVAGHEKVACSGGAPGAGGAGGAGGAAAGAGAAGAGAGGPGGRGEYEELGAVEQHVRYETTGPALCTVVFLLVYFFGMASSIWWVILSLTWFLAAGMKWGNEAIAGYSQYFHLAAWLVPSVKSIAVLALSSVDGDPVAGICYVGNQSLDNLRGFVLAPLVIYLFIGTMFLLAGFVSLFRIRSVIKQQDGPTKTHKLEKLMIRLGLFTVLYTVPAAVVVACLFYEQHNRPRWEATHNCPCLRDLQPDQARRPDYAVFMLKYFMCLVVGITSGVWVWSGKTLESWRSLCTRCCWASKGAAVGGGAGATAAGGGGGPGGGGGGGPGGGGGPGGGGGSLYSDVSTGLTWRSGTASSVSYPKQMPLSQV
Experimental: as §1, §2

[6] = target: T6, ADORA2B (Homo sapiens, UniProt P29275); experiment: NanoBRET screen HiBiT-ADORA2B in HEK293
T6 construct: purchased Promega (in-house HiBiT-GPCR construct library, NanoBRET)
T6 sequence (P29275 1-332): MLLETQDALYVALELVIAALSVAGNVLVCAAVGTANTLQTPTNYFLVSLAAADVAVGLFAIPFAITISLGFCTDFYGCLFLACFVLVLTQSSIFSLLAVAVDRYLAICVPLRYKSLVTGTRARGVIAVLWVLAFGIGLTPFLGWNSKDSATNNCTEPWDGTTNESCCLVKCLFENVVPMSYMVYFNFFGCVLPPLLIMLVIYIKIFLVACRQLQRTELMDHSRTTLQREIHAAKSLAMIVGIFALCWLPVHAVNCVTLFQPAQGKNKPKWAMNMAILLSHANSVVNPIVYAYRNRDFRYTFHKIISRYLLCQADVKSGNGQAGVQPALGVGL
Experimental: as §1, §2

T1 sequence (P41146 whole entry): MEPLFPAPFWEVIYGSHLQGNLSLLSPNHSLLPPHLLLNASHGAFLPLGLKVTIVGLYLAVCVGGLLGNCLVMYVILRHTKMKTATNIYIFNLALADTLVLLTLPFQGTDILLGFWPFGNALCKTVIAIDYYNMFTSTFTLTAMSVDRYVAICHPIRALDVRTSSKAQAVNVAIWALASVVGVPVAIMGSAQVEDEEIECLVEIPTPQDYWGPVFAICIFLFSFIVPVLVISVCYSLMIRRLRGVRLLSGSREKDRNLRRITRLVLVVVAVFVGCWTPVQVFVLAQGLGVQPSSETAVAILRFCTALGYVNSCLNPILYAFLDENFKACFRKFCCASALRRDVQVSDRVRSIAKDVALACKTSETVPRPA

Compound	NanoBRET Fold Response ([1]; OPRL1, tracer 0.1μM)	NanoBRET Fold Response ([1]; OPRL1, tracer 1μM)	NanoBRET Fold Response ([2]; CCR4, tracer 0.1μM)	NanoBRET Fold Response ([2]; CCR4, tracer 1μM)	NanoBRET Fold Response ([3]; AGTR1, tracer 0.1μM)	NanoBRET Fold Response ([3]; AGTR1, tracer 1μM)	NanoBRET Fold Response ([4]; MCHR1, tracer 0.1μM)	NanoBRET Fold Response ([4]; MCHR1, tracer 1μM)	NanoBRET Fold Response ([5]; FZD8, tracer 0.1μM)	NanoBRET Fold Response ([5]; FZD8, tracer 1μM)	NanoBRET Fold Response ([6]; ADORA2B, tracer 0.1μM)	NanoBRET Fold Response ([6]; ADORA2B, tracer 1μM)	also measured
O=C(CCc1ccc2n1[B-](F)(F)[N+]1=C(c3ccc[nH]3)C=CC1=C2)NCc1ccc(C(=O)NCCOCCC(=O)N[C@@H]2CC[C@@]3(O)[C@H]4Cc5ccc(O)c6c5[C@@]3(CCN4CC3CC3)[C@H]2O6)cc1 [Naltrexone-3-NB590]	1.54	0.99	0.32	0.97	1.07	0.93	1.07	0.92	0.90	0.78	0.20	0.77	
COc1ccccc1N1CCN(CCCCN2C(=O)c3ccc(CNC(=O)CCOCCNC(=O)c4ccc(CNC(=O)CCc5ccc6n5[B-](F)(F)[N+]5=C(c7ccc[nH]7)C=CC5=C6)cc4)cc3C2=O)CC1 [NAN-190-3-NB590]	1.08	1.41	0.85	1.11	0.92	1.04	1.20	0.86	1.20	0.87	0.94	1.30	
Cc1cc2c(s1)Nc1ccccc1N=C2N1CCN(CCCNC(=O)CCOCCOCCOCCOCCNC(=O)CCc2ccc3n2[B-](F)(F)[N+]2=C(c4ccc[nH]4)C=CC2=C3)CC1 [Olanzapine-a-2-NB590]	1.02	0.47	1.01	0.92	0.94	0.95	1.04	1.13	0.95	0.94	0.92	1.04	
CCCn1c(=O)c2[nH]c(-c3ccc(OCC(=O)NCCNC(=O)CCOCCNC(=O)c4ccc(CNC(=O)CCc5ccc6n5[B-](F)(F)[N+]5=C(c7ccc[nH]7)C=CC5=C6)cc4)cc3)nc2n(CCC)c1=O [XAC-3-NB590]	1.12	0.72	1.36	1.29	1.24	1.19	1.01	1.03	0.95	1.02	8.09	3.98	
COc1ccc2c(n1)c(CCNC(C)=O)cn2CCNC(=O)CCc1ccc2n1[B-](F)(F)[N+]1=C(c3ccc[nH]3)C=CC1=C2 [Azamelatonin-1-NB590]													NanoBRET Fold Response ([1]; 0.1μM tracer): 1.14; NanoBRET Fold Response ([1]; 1μM tracer): 1.14; NanoBRET Fold Response ([2]; 0.1μM tracer): 0.91; NanoBRET Fold Response ([2]; 1μM tracer): 0.81; NanoBRET Fold Response ([3]; 0.1μM tracer): 0.78; NanoBRET Fold Response ([3]; 1μM tracer): 1.07; NanoBRET Fold Response ([4]; 0.1μM tracer): 0.96; NanoBRET Fold Response ([4]; 1μM tracer): 0.84; NanoBRET Fold Response ([5]; 0.1μM tracer): 1.39; NanoBRET Fold Response ([5]; 1μM tracer): 0.81; NanoBRET Fold Response ([6]; 0.1μM tracer): 0.49; NanoBRET Fold Response ([6]; 1μM tracer): 0.60
